Reference: ChEMBL document CHEMBL1151433, “National and regional assessment of antimicrobial resistance among community-acquired respiratory tract pathogens identified in a 2005-2006 U.S. Faropenem surveillance study” (2007)
Converted amounts (≈) assume the structure as drawn.

Legend:
Streptococcus pneumoniae [1] = test: Antibacterial activity against Streptococcus pneumoniae ATCC 49619 isolated from respiratory tract infected patients after 20 to 24 hrs by broth microdilution method; assay type: functional
Streptococcus pneumoniae [2] = test: Antibacterial activity against penicillin-susceptible Streptococcus pneumoniae ATCC 49619 isolated from respiratory tract infected patients after 20 to 24 hrs by broth microdilution method; assay type: functional
Streptococcus pneumoniae [3] = test: Antibacterial activity against penicillin-intermediate Streptococcus pneumoniae ATCC 49619 isolated from respiratory tract infected patients after 20 to 24 hrs by broth microdilution method; assay type: functional
Streptococcus pneumoniae [4] = test: Antibacterial activity against penicillin-resistant Streptococcus pneumoniae ATCC 49619 isolated from respiratory tract infected patients after 20 to 24 hrs by broth microdilution method; assay type: functional
Streptococcus pneumoniae [5] = test: Antibacterial activity against Streptococcus pneumoniae ATCC 49619 isolated from respiratory tract infected patients assessed as susceptible isolates after 20 to 24 hrs by broth microdilution method; assay type: functional
Streptococcus pneumoniae [6] = test: Antibacterial activity against penicillin-susceptible Streptococcus pneumoniae ATCC 49619 isolated from respiratory tract infected patients assessed as susceptible isolates after 20 to 24 hrs by broth microdilution method; assay type: functional
Streptococcus pneumoniae [7] = test: Antibacterial activity against penicillin-intermediate Streptococcus pneumoniae ATCC 49619 isolated from respiratory tract infected patients assessed as susceptible isolates after 20 to 24 hrs by broth microdilution method; assay type: functional
Streptococcus pneumoniae [8] = test: Antibacterial activity against penicillin-resistant Streptococcus pneumoniae ATCC 49619 isolated from respiratory tract infected patients assessed as susceptible isolates after 20 to 24 hrs by broth microdilution method; assay type: functional
Streptococcus pneumoniae [9] = test: Antibacterial activity against Streptococcus pneumoniae ATCC 49619 isolated from respiratory tract infected patients assessed as resistant isolates after 20 to 24 hrs by broth microdilution method; assay type: functional
Streptococcus pneumoniae [10] = test: Antibacterial activity against penicillin-susceptible Streptococcus pneumoniae ATCC 49619 isolated from respiratory tract infected patients assessed as resistant isolates after 20 to 24 hrs by broth microdilution method; assay type: functional
Streptococcus pneumoniae [11] = test: Antibacterial activity against penicillin-intermediate Streptococcus pneumoniae ATCC 49619 isolated from respiratory tract infected patients assessed as resistant isolates after 20 to 24 hrs by broth microdilution method; assay type: functional
Streptococcus pneumoniae [12] = test: Antibacterial activity against penicillin-resistant Streptococcus pneumoniae ATCC 49619 isolated from respiratory tract infected patients assessed as resistant isolates after 20 to 24 hrs by broth microdilution method; assay type: functional
Haemophilus influenzae [13] = test: Antibacterial activity against Haemophilus influenzae […] isolated from respiratory tract infected patients after 20 to 24 hrs by broth microdilution method; assay type: functional; settings: ATCC 49247
Haemophilus influenzae [14] = test: Antibacterial activity against beta lactamase-positive Haemophilus influenzae […] isolated from respiratory tract infected patients after 20 to 24 hrs by broth microdilution method; assay type: functional; settings: ATCC 49247
Haemophilus influenzae [15] = test: Antibacterial activity against beta lactamase-negative Haemophilus influenzae […] isolated from respiratory tract infected patients after 20 to 24 hrs by broth microdilution method; assay type: functional; settings: ATCC 49247
Haemophilus influenzae [16] = test: Antibacterial activity against Haemophilus influenzae […] isolated from respiratory tract infected patients assessed as susceptible isolates after 20 to 24 hrs by broth microdilution method; assay type: functional, ATCC 49247
Haemophilus influenzae [17] = test: Antibacterial activity against beta lactamase-positive Haemophilus influenzae […] isolated from respiratory tract infected patients assessed as susceptible isolates after 20 to 24 hrs by broth microdilution method; assay type: functional, ATCC 49247
Haemophilus influenzae [18] = test: Antibacterial activity against beta lactamase-negative Haemophilus influenzae […] isolated from respiratory tract infected patients assessed as susceptible isolates after 20 to 24 hrs by broth microdilution method; assay type: functional
Moraxella catarrhalis = test: Antibacterial activity against Moraxella catarrhalis isolated from respiratory tract infected patients after 20 to 24 hrs by broth microdilution method; assay type: functional
Streptococcus pneumoniae [19] = test: Antibacterial activity against Streptococcus pneumoniae ATCC 49619 isolated from respiratory tract infected patients within 2 years of age after 20 to 24 hrs by broth microdilution method; assay type: functional
Streptococcus pneumoniae [20] = test: Antibacterial activity against Streptococcus pneumoniae ATCC 49619 isolated from respiratory tract infected patients with 3 to 5 years of age after 20 to 24 hrs by broth microdilution method; assay type: functional
Streptococcus pneumoniae [21] = test: Antibacterial activity against Streptococcus pneumoniae ATCC 49619 isolated from respiratory tract infected patients with 6 to 14 years of age after 20 to 24 hrs by broth microdilution method; assay type: functional
Streptococcus pneumoniae [22] = test: Antibacterial activity against Streptococcus pneumoniae ATCC 49619 isolated from respiratory tract infected patients with 15 to 64 years of age after 20 to 24 hrs by broth microdilution method; assay type: functional
Streptococcus pneumoniae [23] = test: Antibacterial activity against Streptococcus pneumoniae ATCC 49619 isolated from respiratory tract infected patients more than 65 years of age after 20 to 24 hrs by broth microdilution method; assay type: functional
Streptococcus pneumoniae [24] = test: Antibacterial activity against Streptococcus pneumoniae ATCC 49619 isolated from respiratory tract infected patients within 2 years of age assessed as resistant isolates after 20 to 24 hrs by broth microdilution method; assay type: functional
Streptococcus pneumoniae [25] = test: Antibacterial activity against Streptococcus pneumoniae ATCC 49619 isolated from respiratory tract infected patients with 3 to 5 years of age assessed as resistant isolates after 20 to 24 hrs by broth microdilution method; assay type: functional
Streptococcus pneumoniae [26] = test: Antibacterial activity against Streptococcus pneumoniae ATCC 49619 isolated from respiratory tract infected patients with 6 to 14 years of age assessed as resistant isolates after 20 to 24 hrs by broth microdilution method; assay type: functional
Streptococcus pneumoniae [27] = test: Antibacterial activity against Streptococcus pneumoniae ATCC 49619 isolated from respiratory tract infected patients with 15 to 64 years of age assessed as resistant isolates after 20 to 24 hrs by broth microdilution method; assay type: functional
Streptococcus pneumoniae [28] = test: Antibacterial activity against Streptococcus pneumoniae ATCC 49619 isolated from respiratory tract infected patients more than 65 years of age assessed as resistant isolates after 20 to 24 hrs by broth microdilution method; assay type: functional
Streptococcus pneumoniae [29] = test: Antibacterial activity against Streptococcus pneumoniae ATCC 49619 isolated from respiratory tract infected male patients after 20 to 24 hrs by broth microdilution method; assay type: functional
Streptococcus pneumoniae [30] = test: Antibacterial activity against Streptococcus pneumoniae ATCC 49619 isolated from respiratory tract infected male patients assessed as resistant isolates after 20 to 24 hrs by broth microdilution method; assay type: functional
Streptococcus pneumoniae [31] = test: Antibacterial activity against Streptococcus pneumoniae ATCC 49619 isolated from respiratory tract infected female patients after 20 to 24 hrs by broth microdilution method; assay type: functional
Streptococcus pneumoniae [32] = test: Antibacterial activity against Streptococcus pneumoniae ATCC 49619 isolated from respiratory tract infected female patients assessed as resistant isolates after 20 to 24 hrs by broth microdilution method; assay type: functional
Streptococcus pneumoniae [33] = test: Antibacterial activity against Streptococcus pneumoniae ATCC 49619 isolated from respiratory tract infected inpatients after 20 to 24 hrs by broth microdilution method; assay type: functional
Streptococcus pneumoniae [34] = test: Antibacterial activity against Streptococcus pneumoniae ATCC 49619 isolated from respiratory tract infected inpatients assessed as resistant isolates after 20 to 24 hrs by broth microdilution method; assay type: functional
Streptococcus pneumoniae [35] = test: Antibacterial activity against Streptococcus pneumoniae ATCC 49619 isolated from respiratory tract infected outpatients after 20 to 24 hrs by broth microdilution method; assay type: functional
Streptococcus pneumoniae [36] = test: Antibacterial activity against Streptococcus pneumoniae ATCC 49619 isolated from respiratory tract infected outpatients assessed as resistant isolates after 20 to 24 hrs by broth microdilution method; assay type: functional

SMILES: C=CC1=C(C(=O)O)N2C(=O)[C@@H](NC(=O)/C(=N\O)c3csc(N)n3)[C@H]2SC1 [CEFDINIR]
- MIC50 (Streptococcus pneumoniae [1]): 0.12 µg/mL (≈ 0.303 µM)
- MIC90 (Streptococcus pneumoniae [1]): 8 µg/mL (≈ 20.2 µM)
- MIC50 (Streptococcus pneumoniae [2]): ≤ 0.06 µg/mL
- MIC90 (Streptococcus pneumoniae [2]): 0.12 µg/mL (≈ 0.303 µM)
- MIC50 (Streptococcus pneumoniae [3]): 0.25 µg/mL (≈ 0.632 µM)
- MIC90 (Streptococcus pneumoniae [3]): 2 µg/mL (≈ 5.06 µM)
- MIC50 (Streptococcus pneumoniae [4]): 8 µg/mL (≈ 20.2 µM)
- Activity (Streptococcus pneumoniae [5]): 76.8%
- Activity (Streptococcus pneumoniae [6]): 99.9%
- Activity (Streptococcus pneumoniae [7]): 67.5%
- Activity (Streptococcus pneumoniae [8]): 0%
- Activity (Streptococcus pneumoniae [9]): 19.2%
- Activity (Streptococcus pneumoniae [10]): 0%
- Activity (Streptococcus pneumoniae [11]): 14.8%
- Activity (Streptococcus pneumoniae [12]): 100%
- % susceptible (Haemophilus influenzae [13]): 1%
- MIC50 (Haemophilus influenzae [13]): 0.25 µg/mL (≈ 0.632 µM)
- % susceptible (Haemophilus influenzae [14]): 1%
- MIC50 (Haemophilus influenzae [14]): 0.25 µg/mL (≈ 0.632 µM)
- % susceptible (Haemophilus influenzae [15]): 1%
- MIC50 (Haemophilus influenzae [15]): 0.25 µg/mL (≈ 0.632 µM)
- Activity (Haemophilus influenzae [16]): 94.8%
- Activity (Haemophilus influenzae [17]): 94.4%
- Activity (Haemophilus influenzae [18]): 95%
- MIC50 (Moraxella catarrhalis): 0.25 µg/mL (≈ 0.632 µM)
- MIC90 (Moraxella catarrhalis): 0.5 µg/mL (≈ 1.26 µM)
- MIC90 (Streptococcus pneumoniae [19]): > 8 µg/mL
- MIC90 (Streptococcus pneumoniae [20]): > 8 µg/mL
- MIC90 (Streptococcus pneumoniae [21]): 8 µg/mL (≈ 20.2 µM)
- MIC90 (Streptococcus pneumoniae [22]): 4 µg/mL (≈ 10.1 µM)
- MIC90 (Streptococcus pneumoniae [23]): 4 µg/mL (≈ 10.1 µM)
- Activity (Streptococcus pneumoniae [24]): 33.2%
- Activity (Streptococcus pneumoniae [25]): 23.2%
- Activity (Streptococcus pneumoniae [26]): 19.8%
- Activity (Streptococcus pneumoniae [27]): 15.4%
- Activity (Streptococcus pneumoniae [28]): 15.8%
- MIC90 (Streptococcus pneumoniae [29]): 8 µg/mL (≈ 20.2 µM)
- Activity (Streptococcus pneumoniae [30]): 19.8%
- MIC90 (Streptococcus pneumoniae [31]): 8 µg/mL (≈ 20.2 µM)
- Activity (Streptococcus pneumoniae [32]): 18.3%
- MIC90 (Streptococcus pneumoniae [33]): 8 µg/mL (≈ 20.2 µM)
- Activity (Streptococcus pneumoniae [34]): 18.8%
- MIC90 (Streptococcus pneumoniae [35]): 8 µg/mL (≈ 20.2 µM)
- Activity (Streptococcus pneumoniae [36]): 19.6%

SMILES: C[C@@H](O)[C@H]1C(=O)N2C(C(=O)O)=C([C@H]3CCCO3)S[C@H]12 [FAROPENEM]
- MIC50 (Streptococcus pneumoniae [1]): 0.015 µg/mL (≈ 0.0526 µM)
- MIC90 (Streptococcus pneumoniae [1]): 0.5 µg/mL (≈ 1.75 µM)
- MIC50 (Streptococcus pneumoniae [2]): 0.008 µg/mL (≈ 0.028 µM)
- MIC90 (Streptococcus pneumoniae [2]): 0.015 µg/mL (≈ 0.0526 µM)
- MIC50 (Streptococcus pneumoniae [3]): 0.06 µg/mL (≈ 0.21 µM)
- MIC90 (Streptococcus pneumoniae [3]): 0.25 µg/mL (≈ 0.876 µM)
- MIC50 (Streptococcus pneumoniae [4]): 1 µg/mL (≈ 3.5 µM)
- MIC90 (Streptococcus pneumoniae [4]): 2 µg/mL (≈ 7.01 µM)
- MIC50 (Moraxella catarrhalis): 0.25 µg/mL (≈ 0.876 µM)
- MIC90 (Moraxella catarrhalis): 0.5 µg/mL (≈ 1.75 µM)
- MIC90 (Streptococcus pneumoniae [19]): 1 µg/mL (≈ 3.5 µM)
- MIC90 (Streptococcus pneumoniae [20]): 1 µg/mL (≈ 3.5 µM)
- MIC90 (Streptococcus pneumoniae [21]): 0.5 µg/mL (≈ 1.75 µM)
- MIC90 (Streptococcus pneumoniae [22]): 0.5 µg/mL (≈ 1.75 µM)
- MIC90 (Streptococcus pneumoniae [23]): 0.5 µg/mL (≈ 1.75 µM)
- MIC90 (Streptococcus pneumoniae [29]): 0.5 µg/mL (≈ 1.75 µM)
- MIC90 (Streptococcus pneumoniae [31]): 0.5 µg/mL (≈ 1.75 µM)
- MIC90 (Streptococcus pneumoniae [33]): 0.5 µg/mL (≈ 1.75 µM)
- MIC90 (Streptococcus pneumoniae [35]): 0.5 µg/mL (≈ 1.75 µM)
